In patent US20250326799A1, “AGENTS INDUCING VASCULARISATION” (Coegin Pharma AB, priority 2022, published 2025):

Tests used:
Assay type in all cases: cell-based
[1] = system: human coronary smooth muscle cells (HCASMCs); experiment: Low-oxygen induced apoptosis, active caspase-3/-7, smooth muscle cells
Experimental: The effect of FOL-026 peptide treatment on smooth muscle cell proliferation (FIG. 25a) and apoptosis (FIG. 25c) induced with low-oxygen condition was evaluated with the uptake of BrdU (n=10 per group) and active caspase-3/-7 (n=6-8 per group) separately. H2O2 measurement (FIG. 25b) of smooth muscle cells pre-incubated with FOL-26 peptides after 50 ug/ml oxidized Low-density Lipoprotein (oxLDL) stimulation for 2 hours (n=6-7 per group). Representative images of scratch wound assay in vitro are shown (FIG. 26a) and the ability of wound healing (FIG. 26b) in human coronary smooth muscle cells (HCASMCs) treated with FOL-026 peptides was measured by image J software (n=10 per group). Scale bar=150 um. Data are presented as means±SEM and acquired from 3 to 4 independent replicate tests. *P<0.05, **P<0.01, ***P<0.001, ****P<0.0001 by one-way ANOVA and Dunnett's post-hoc test.

[2] = system: human umbilical vascular endothelial cells (HUVECs); experiment: ROS level (H2O2 measurement) after oxLDL, HUVECs; settings: HUVECs pre-incubated with peptide; 50 ug/ml oxLDL for 2 hours
Experimental: (§1) The impact of FOL-026 peptide on human umbilical vascular endothelial cells (HUVECs) proliferation (FIG. 18a) and apoptosis (FIG. 18c) induced with low-oxygen condition was determined by BrdU uptake (n=8-9 per group) and active caspase-3/-7 (n=7-10 per group) separately. The ROS level (FIG. 18b) activated by 50 ug/ml oxidized Low-density Lipoprotein (oxLDL) for 2 hours in cells pre-incubated with FOL-026 peptides was assessed using H2O2 measurement (n=4-8 per group). Representative pictures of endothelial migration into an in vitro scratch injury were shown (FIG. 19a) and the wound closure rate (FIG. 19b) in HUVECs stimulated with increasing concentration of FOL-026 peptide was quantified by image J software (n=8-9 per group). Scale bar=150 um. Data are presented as means±SEM and acquired from 3 to 4 independent replicate tests. *P<0.05, **P<0.01, ****P<0.0001 by one-way ANOVA and Dunnett's post-hoc test.

[3] = system: human umbilical vascular endothelial cells (HUVECs); experiment: Low-oxygen induced apoptosis, active caspase-3/-7, HUVECs
Experimental: as §1
The efficiency of small interfering RNA transfection for 48 hours in HUVECs was confirmed by qRT-PCR (n=4) (FIG. 22a). […]

VDTYDGGISVVYGLR [FOL-026]
smooth muscle cell apoptosis induced with low-oxygen condition (active caspase-3/-7) [1]: inhibits apoptosis | ROS levels induced by oxLDL (H2O2 measurement) [2]: reduce the amount of ROS levels | cell apoptosis at 0.1% oxygen after NRP-1 knock-down (active caspase-3/-7) ([3]; HUVECs transfected with siRNA-NC or siNRP-1): blocks the effect | low oxygen induced apoptosis (active caspase-3/-7) ([3]; HUVECs, low-oxygen condition): alleviates the effect of low oxygen induced apoptosis
